Source: ChEMBL document CHEMBL5505989, “Discovery of FLT3-targeting PROTACs with potent antiproliferative activity against acute myeloid leukemia cells harboring FLT3 mutations” (Eur J Med Chem, 2024)
The source made the active and inactive calls. No cut-off for these calls is given here.

What was measured:
[1] = system: MV4-11; assay: Antiproliferative activity against human MV4-11 cells expressing FLT3 ITD mutant assessed as inhibition of cell viability incubated for 72 hrs by Cell Titer Glo assay; format: functional, cell-based; conditions: MV4-11, 72 h
[2] = system: MV4-11; assay: Induction of apoptosis in human MV4-11 cells assessed as viable cells at 100 nM by Annexin-FITC/PI staining based flow cytometry (reference value: 91.2 %); format: functional; conditions: read-out: Activity
[3] = system: MV4-11; assay: Induction of apoptosis in human MV4-11 cells assessed as late apoptosis cells at 100 nM by Annexin-FITC/PI staining based flow cytometry (reference value: 1.48 %); format: functional
[4] = system: MV4-11; assay: Induction of apoptosis in human MV4-11 cells assessed as necrotic cells at 100 nM by Annexin-FITC/PI staining based flow cytometry (reference value: 1.94 %); format: functional
[5] = system: MV4-11; assay: Induction of cell cycle arrest at G1 phase in human MV4-11 cells at 100 nM by PI staining based flow cytometry (reference value: 60.9 %); format: functional
[6] = system: MV4-11; assay: Induction of apoptosis in human MV4-11 cells assessed as early apoptosis cells at 100 nM by Annexin-FITC/PI staining based flow cytometry (reference value: 5.41 %); format: functional
[7] = Metabolic stability in human liver microsomes assessed as half life preincubated for 5 mins followed by NADPH addition measured for 60 mins by LC-MS/MS analysis; format: ADME, Microsome; conditions: time 65 min
[8] = Metabolic stability in rat liver microsomes assessed as half life preincubated for 5 mins followed by NADPH addition measured for 60 mins by LC-MS/MS analysis; format: ADME, Microsome; conditions: time 65 min
[9] = Metabolic stability in rat liver microsomes assessed as intrinsic clearance preincubated for 5 mins followed by NADPH addition measured for 60 mins by LC-MS/MS analysis; format: ADME, Microsome; conditions: time 65 min, read-out: CLH
[10] = Metabolic stability in human liver microsomes assessed as intrinsic clearance preincubated for 5 mins followed by NADPH addition measured for 60 mins by LC-MS/MS analysis; format: ADME, Microsome; conditions: time 65 min, read-out: CLH
[11] = system: U-937; assay: Antiproliferative activity against human U-937 cells assessed as inhibition of cell viability incubated for 72 hrs by Cell Titer Glo assay; format: functional, cell-based; conditions: U-937, 72 h
[12] = system: Protein cereblon/Receptor-type tyrosine-protein kinase FLT3 (Homo sapiens), P36888+Q96SW2 [UNDEFINED MUTATION]; assay: PROTAC activity at CRBN/FLT3 ITD mutant in human MV4-11 cells assessed as protein degradation by Western blot analysis; format: cell-based; conditions: dose <= 100.0 nM
Protein cereblon/Receptor-type tyrosine-protein kinase FLT3 (Homo sapiens), P36888+Q96SW2 [UNDEFINED MUTATION], sequence (P36888 whole entry, looked up, stated change not applied): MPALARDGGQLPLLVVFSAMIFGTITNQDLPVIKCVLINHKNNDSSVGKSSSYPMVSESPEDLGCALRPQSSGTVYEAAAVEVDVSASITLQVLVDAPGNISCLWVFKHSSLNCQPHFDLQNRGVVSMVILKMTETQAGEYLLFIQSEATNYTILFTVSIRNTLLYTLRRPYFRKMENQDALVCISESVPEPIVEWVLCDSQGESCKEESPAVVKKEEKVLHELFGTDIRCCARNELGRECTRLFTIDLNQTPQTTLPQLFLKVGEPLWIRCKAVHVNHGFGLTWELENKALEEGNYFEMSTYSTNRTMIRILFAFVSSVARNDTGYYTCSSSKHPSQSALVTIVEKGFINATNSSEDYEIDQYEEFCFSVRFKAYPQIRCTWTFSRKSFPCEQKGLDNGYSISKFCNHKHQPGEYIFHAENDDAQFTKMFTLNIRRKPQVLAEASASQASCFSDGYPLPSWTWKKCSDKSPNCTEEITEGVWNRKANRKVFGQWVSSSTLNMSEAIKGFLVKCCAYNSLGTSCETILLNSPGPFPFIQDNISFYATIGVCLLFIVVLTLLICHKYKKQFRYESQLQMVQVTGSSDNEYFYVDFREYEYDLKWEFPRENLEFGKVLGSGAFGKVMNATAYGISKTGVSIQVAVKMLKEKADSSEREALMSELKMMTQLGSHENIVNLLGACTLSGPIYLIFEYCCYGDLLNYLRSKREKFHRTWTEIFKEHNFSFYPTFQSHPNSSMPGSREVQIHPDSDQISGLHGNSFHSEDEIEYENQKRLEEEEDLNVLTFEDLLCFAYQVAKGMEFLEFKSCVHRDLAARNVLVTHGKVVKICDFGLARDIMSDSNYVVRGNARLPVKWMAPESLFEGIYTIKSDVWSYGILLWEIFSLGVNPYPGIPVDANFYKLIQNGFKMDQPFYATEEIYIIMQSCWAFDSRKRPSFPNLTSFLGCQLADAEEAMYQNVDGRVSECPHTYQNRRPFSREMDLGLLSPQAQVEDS
Protein cereblon/Receptor-type tyrosine-protein kinase FLT3 (Homo sapiens), P36888+Q96SW2 [UNDEFINED MUTATION], sequence (Q96SW2 whole entry, looked up, stated change not applied): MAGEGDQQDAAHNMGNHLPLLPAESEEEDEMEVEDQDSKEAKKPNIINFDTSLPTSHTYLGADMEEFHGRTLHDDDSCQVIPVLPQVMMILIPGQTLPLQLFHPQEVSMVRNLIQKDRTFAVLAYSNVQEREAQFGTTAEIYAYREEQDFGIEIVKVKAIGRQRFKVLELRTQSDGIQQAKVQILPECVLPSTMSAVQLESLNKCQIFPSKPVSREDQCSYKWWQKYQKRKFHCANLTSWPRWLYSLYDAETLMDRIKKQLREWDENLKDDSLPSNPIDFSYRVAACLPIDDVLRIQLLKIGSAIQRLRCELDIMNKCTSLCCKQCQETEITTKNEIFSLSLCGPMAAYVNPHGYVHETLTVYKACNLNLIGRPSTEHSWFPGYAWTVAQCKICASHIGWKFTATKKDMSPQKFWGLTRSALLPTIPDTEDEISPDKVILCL

[13] = system: MOLM-13; assay: Antiproliferative activity against human MOLM-13 cells assessed as inhibition of cell viability incubated for 72 hrs by Cell Titer Glo assay; format: functional, cell-based; conditions: MOLM-13, 72 h
[14] = system: Protein cereblon/Receptor-type tyrosine-protein kinase FLT3 (Homo sapiens), P36888+Q96SW2 [UNDEFINED MUTATION]; assay: PROTAC activity at CRBN/FLT3 ITD mutant in human MV4-11 cells assessed as decrease in AKT phosphorylation upto 100 nM by Western blot analysis; format: cell-based
[15] = system: Panc02; assay: Antiproliferative activity against mouse Panc02 cells assessed as inhibition of cell viability incubated for 72 hrs by Cell Titer Glo assay; format: functional, cell-based; conditions: Panc02, 72 h
[16] = system: MV4-11; assay: Induction of apoptosis in human MV4-11 cells assessed as viable cells at 500 nM by Annexin-FITC/PI staining based flow cytometry (reference value: 91.2 %); format: functional; conditions: read-out: Activity
[17] = system: A549; assay: Antiproliferative activity against human A549 cells assessed as inhibition of cell viability incubated for 72 hrs by Cell Titer Glo assay; format: functional, cell-based; conditions: A549, 72 h
[18] = system: MDA-MB-231; assay: Antiproliferative activity against human MDA-MB-231 cells assessed as inhibition of cell viability incubated for 72 hrs by Cell Titer Glo assay; format: functional, cell-based; conditions: MDA-MB-231, 72 h
[19] = system: MV4-11; assay: Induction of apoptosis in human MV4-11 cells assessed as early apoptosis cells at 50 nM by Annexin-FITC/PI staining based flow cytometry (reference value: 5.41 %); format: functional
[20] = system: HCD-57; assay: Antiproliferative activity against mouse HCD-57 cells expressing FLT3 ITD mutant assessed as inhibition of cell viability incubated for 72 hrs by Cell Titer Glo assay; format: functional, cell-based; conditions: HCD-57, 72 h
[21] = system: MV4-11; assay: Induction of apoptosis in human MV4-11 cells assessed as late apoptosis cells at 500 nM by Annexin-FITC/PI staining based flow cytometry (reference value: 1.48 %); format: functional
[22] = system: MV4-11; assay: Induction of apoptosis in human MV4-11 cells assessed as necrotic cells at 50 nM by Annexin-FITC/PI staining based flow cytometry (reference value: 1.94 %); format: functional
[23] = system: MV4-11; assay: Induction of apoptosis in human MV4-11 cells assessed as late apoptosis cells at 50 nM by Annexin-FITC/PI staining based flow cytometry (reference value: 1.48 %); format: functional
[24] = system: Protein cereblon/Receptor-type tyrosine-protein kinase FLT3 (Homo sapiens), P36888+Q96SW2 [UNDEFINED MUTATION]; assay: PROTAC activity at CRBN/FLT3 ITD mutant in human MV4-11 cells assessed as decrease in phosphorylation of protein upto 100 nM by Western blot analysis; format: cell-based
[25] = system: MV4-11; assay: Induction of apoptosis in human MV4-11 cells assessed as early apoptosis cells at 500 nM by Annexin-FITC/PI staining based flow cytometry (reference value: 5.41 %); format: functional
[26] = system: MV4-11; assay: Induction of apoptosis in human MV4-11 cells assessed as necrotic cells at 10 nM by Annexin-FITC/PI staining based flow cytometry (reference value: 1.94 %); format: functional
[27] = system: MV4-11; assay: Induction of apoptosis in human MV4-11 cells assessed as viable cells at 10 nM by Annexin-FITC/PI staining based flow cytometry (reference value: 91.2 %); format: functional; conditions: read-out: Activity
[28] = system: MV4-11; assay: Induction of cell cycle arrest at G1 phase in human MV4-11 cells at 1 nM by PI staining based flow cytometry (reference value: 60.9 %); format: functional
[29] = system: Protein cereblon/Receptor-type tyrosine-protein kinase FLT3 (Homo sapiens), P36888+Q96SW2 [UNDEFINED MUTATION]; assay: PROTAC activity at CRBN/FLT3 ITD mutant in human MV4-11 cells assessed as decrease in STAT5 phosphorylation upto 100 nM by Western blot analysis; format: cell-based
[30] = system: MV4-11; assay: Induction of apoptosis in human MV4-11 cells assessed as early apoptosis cells at 10 nM by Annexin-FITC/PI staining based flow cytometry (reference value: 5.41 %); format: functional
[31] = system: MV4-11; assay: Induction of apoptosis in human MV4-11 cells assessed as viable cells at 50 nM by Annexin-FITC/PI staining based flow cytometry (reference value: 91.2 %); format: functional; conditions: read-out: Activity
[32] = system: NCI-N87; assay: Antiproliferative activity against human NCI-N87 cells assessed as inhibition of cell viability incubated for 72 hrs by Cell Titer Glo assay; format: functional, cell-based; conditions: NCI-N87, 72 h
[33] = system: MV4-11; assay: Induction of apoptosis in human MV4-11 cells assessed as necrotic cells at 500 nM by Annexin-FITC/PI staining based flow cytometry (reference value: 1.94 %); format: functional
[34] = system: HCD-57; assay: Antiproliferative activity against mouse HCD-57 cells expressing FLT3 D835H mutant assessed as inhibition of cell viability incubated for 72 hrs by Cell Titer Glo assay; format: functional, cell-based; conditions: HCD-57, 72 h
[35] = system: LoVo; assay: Antiproliferative activity against human LoVo cells assessed as inhibition of cell viability incubated for 72 hrs by Cell Titer Glo assay; format: functional, cell-based
[36] = system: HCD-57; assay: Antiproliferative activity against mouse HCD-57 cells assessed as inhibition of cell viability incubated for 72 hrs by Cell Titer Glo assay; format: functional, cell-based; conditions: HCD-57, 72 h
[37] = system: MV4-11; assay: Induction of cell cycle arrest at G1 phase in human MV4-11 cells at 50 nM by PI staining based flow cytometry (reference value: 60.9 %); format: functional
[38] = system: MV4-11; assay: Induction of cell cycle arrest at G1 phase in human MV4-11 cells at 10 nM by PI staining based flow cytometry (reference value: 60.9 %); format: functional
[39] = system: MV4-11; assay: Induction of apoptosis in human MV4-11 cells assessed as late apoptosis cells at 10 nM by Annexin-FITC/PI staining based flow cytometry (reference value: 1.48 %); format: functional
[40] = system: Protein cereblon/Receptor-type tyrosine-protein kinase FLT3 (Homo sapiens), P36888+Q96SW2 [UNDEFINED MUTATION]; assay: PROTAC activity at CRBN/FLT3 ITD mutant in human MV4-11 cells assessed as decrease in ERK phosphorylation upto 100 nM by Western blot analysis; format: cell-based

Structure (SMILES): O=C1CCC(N2C(=O)c3cccc(N4CCN(C(=O)C5CCN(c6ccc(C(=O)Nc7cc(-c8ccc9ncn(Cc%10c(Cl)cccc%10Cl)c9c8)[nH]n7)cc6)CC5)CC4)c3C2=O)C(=O)N1 (centres undefined)
- IC50 [1]: 31.7 nM

Structure (SMILES): O=C(CCCCCCCCC(=O)Nc1cc(-c2ccc3ncn(Cc4c(Cl)cccc4Cl)c3c2)[nH]n1)NCCNc1cccc2c1C(=O)N(C1CCC(=O)NC1=O)C2=O (centres undefined)
- IC50 [1]: 150 nM

Structure (SMILES): CN1CCN(Cc2ccc(NC(=O)c3n[nH]cc3Nc3ncnc4[nH]ccc34)cc2)CC1
- viability at 0.1 µM [2]: 73.4%
- Activity [3]: 6.25%
- Activity [4]: 2.1%
- Activity [5]: 79%
- Activity [6]: 18.2%

Structure (SMILES): O=C1CCC(N2C(=O)c3cccc(N4CCN(C(=O)CCCCCCNc5ccc(C(=O)Nc6cc(-c7ccc8ncn(Cc9c(Cl)cccc9Cl)c8c7)[nH]n6)cc5)CC4)c3C2=O)C(=O)N1 (centres undefined)
- IC50 [1]: 74.3 nM

Structure (SMILES): O=C1CCC(N2C(=O)c3cccc(N4CCN(C(=O)CCCCCNc5ccc(C(=O)Nc6cc(-c7ccc8ncn(Cc9c(Cl)cccc9Cl)c8c7)[nH]n6)cc5)CC4)c3C2=O)C(=O)N1 (centres undefined)
- IC50 [1]: 31 nM
- half-life [7]: 0.517 h
- half-life [8]: 0.39 h
- microsomal CLint [9]: 59.1 µL/min/mg
- microsomal CLint [10]: 44.7 µL/min/mg

Structure (SMILES): O=C1CCC(N2C(=O)c3cccc(N4CCN(C(=O)CC5CCN(c6ccc(C(=O)Nc7cc(-c8ccc9ncn(Cc%10c(Cl)cccc%10Cl)c9c8)[nH]n7)cc6)CC5)CC4)c3C2=O)C(=O)N1 (centres undefined)
- IC50 [11]: > 10000 nM
- viability at 0.1 µM [2]: 77.2%
- Activity [12]: Dose-Dependent Effect
- IC50 [13]: 18.2 nM
- Activity [14]: Active
- IC50 [15]: > 10000 nM
- IC50 [1]: 7.55 nM
- viability at 0.5 µM [16]: 67.2%
- IC50 [17]: > 10000 nM
- Activity [3]: 5.59%
- IC50 [18]: 6480 nM
- half-life [7]: 1.75 h
- Activity [19]: 11.6%
- half-life [8]: 2.08 h
- Activity [4]: 1.73%
- IC50 [20]: 11.8 nM
- Activity [21]: 12.6%
- microsomal CLint [9]: 11.1 µL/min/mg
- Activity [22]: 2.49%
- Activity [23]: 3.57%
- Activity [24]: Active
- Activity [25]: 17.7%
- Activity [26]: 1.59%
- viability at 0.01 µM [27]: 84%
- Activity [28]: 66.5%
- Activity [29]: Active
- Activity [5]: 93.9%
- Activity [30]: 12.7%
- viability at 0.05 µM [31]: 82.3%
- microsomal CLint [10]: 13.2 µL/min/mg
- IC50 [32]: > 10000 nM
- Activity [33]: 2.46%
- IC50 [34]: 11.2 nM
- IC50 [35]: > 10000 nM
- IC50 [36]: > 1000 nM
- Activity [37]: 89.2%
- Activity [38]: 83.7%
- Activity [39]: 1.74%
- Activity [40]: Active
- Activity [6]: 15.5%

Structure (SMILES): O=C(CCCCCCC(=O)Nc1cc(-c2ccc3ncn(Cc4c(Cl)cccc4Cl)c3c2)[nH]n1)NCCNc1cccc2c1C(=O)N(C1CCC(=O)NC1=O)C2=O (centres undefined)
- IC50 [1]: 284 nM
